Experimental data taken from publication PMC6211260 (Journal of Enzyme Inhibition and Medicinal Chemistry, 2018).

Columns and labels:
Assay type in all cases: cell-based
melanoma cell lines = test: NCI five-dose testing, subpanel mean; conditions: subpanel V: melanoma
Procedure: (§1) Screening against the cancer cell lines was carried out at the National Cancer Institute (NCI, Bethesda, Maryland, USA) applying the standard protocol of the NCI[22].

CNS cancer cell lines = test: NCI five-dose testing, subpanel mean; conditions: subpanel IV: CNS cancer
Procedure: as §1

Leukaemia cell lines = test: NCI five-dose testing, subpanel mean; conditions: subpanel I: Leukaemia
Procedure: as §1

[1] = test system: ovarian cancer cell lines; test: NCI five-dose testing, subpanel mean; conditions: subpanel VI: ovarian cancer
Procedure: as §1

breast cancer cell lines = test: NCI five-dose testing, subpanel mean; conditions: subpanel IX: breast cancer
Procedure: as §1

[2] = test system: non-small cell lung cancer cell lines; test: NCI five-dose testing, subpanel mean; conditions: subpanel II: non-small cell lung cancer
Procedure: as §1

colon cancer cell lines = test: NCI five-dose testing, subpanel mean; conditions: subpanel III: colon cancer
Procedure: as §1

[3] = test system: prostate cancer cell lines; test: NCI five-dose testing, subpanel mean; conditions: subpanel VIII: prostate cancer
Procedure: as §1

renal cancer cell lines = test: NCI five-dose testing, subpanel mean; conditions: subpanel VII: renal cancer
Procedure: as §1

[4] = test system: U251 CNS cancer cell line; test: NCI five-dose testing; conditions: Homo sapiens; for CC50: U-251, read-out: LD50 (lethal dose 50); for IC50 / IC (TGI): U-251, U251; for IC50: read-out: IC50; for IC (TGI): read-out: TGI (total growth inhibition concentration)
Procedure: as §1

[5] = test system: HT-29 colon cancer cell line; test: NCI five-dose testing; conditions: Homo sapiens; for CC50: HT-29, read-out: LD50 (lethal dose 50); for IC50 / IC (TGI): HT-29; for IC50: read-out: IC50; for IC (TGI): read-out: TGI (total growth inhibition concentration)
Procedure: as §1

[6] = test system: PC-3 prostate cancer cell line; test: NCI five-dose testing; conditions: Homo sapiens; for LC50 (lethal concentration 50): PC-3, read-out: LD50 (lethal dose 50); for IC50 / IC (TGI): PC-3; for IC50: read-out: IC50; for IC (TGI): read-out: TGI (total growth inhibition concentration)
Procedure: as §1

[7] = test system: OVCAR-4 ovarian cancer cell line; test: NCI five-dose testing; conditions: Homo sapiens; for IC50 / IC (TGI): OVCAR-4; for LC50 (lethal concentration 50): OVCAR-4, read-out: LD50 (lethal dose 50); for IC (TGI): read-out: TGI (total growth inhibition concentration)
Procedure: as §1

[8] = test system: MDA-MB-468 breast cancer cell line; test: NCI five-dose testing; conditions: Homo sapiens; for IC50 / IC (TGI): MDA-MB-468; for CC50: MDA-MB-468, read-out: LD50 (lethal dose 50); for IC (TGI): read-out: TGI (total growth inhibition concentration)
Procedure: as §1

[9] = test system: K-562 leukaemia cell line; test: NCI five-dose testing; conditions: Homo sapiens; for CC50: K562, read-out: LD50 (lethal dose 50); for IC50 / IC (TGI): K562, K-562; for IC (TGI): read-out: TGI (total growth inhibition concentration)
Procedure: as §1

[10] = test system: HOP-92 non-small cell lung cancer cell line; test: NCI five-dose testing; conditions: Homo sapiens; for IC50: HOP-92; for IC (TGI): HOP-92, HOP-92, read-out: TGI (total growth inhibition concentration); for LD50 (lethal dose 50): HOP-92, read-out: LD50 (lethal dose 50)
Procedure: as §1

[11] = test system: A498 renal cancer cell line; test: NCI five-dose testing; conditions: Homo sapiens; for IC50 / IC (TGI): A498; for LC50 (lethal concentration 50%): A498, read-out: LD50 (lethal dose 50); for IC (TGI): read-out: TGI (total growth inhibition concentration)
Procedure: as §1

[12] = test system: SK-MEL-5 melanoma cell line; test: NCI five-dose testing; conditions: Homo sapiens; for IC50 / IC (TGI): SK-MEL-5; for LC50 (lethal concentration 50): SK-MEL-5, read-out: LD50 (lethal dose 50); for IC (TGI): read-out: TGI (total growth inhibition concentration)
Procedure: as §1

NCI-60 cell line panel = test: NCI-60 single-dose (10 µM) antiproliferative screening, mean over panel; conditions: single-dose 10 µM, 60-cancer cell line screening
Procedure: as §1
The final target compounds were submitted to the National Cancer Institute (NCI), Maryland, USA[23]. Thirty-one compounds were selected to be tested over 60 cell lines at single dose 10 µM.

Row | Structure (SMILES) | IC50 (melanoma cell lines) [µM] | IC50 (CNS cancer cell lines) [µM] | IC50 (Leukaemia cell lines) [µM] | IC50 [1] [µM] | IC50 (breast cancer cell lines) [µM] | IC50 [2] [µM] | IC50 (colon cancer cell lines) [µM] | IC50 [3] [µM] | IC50 (renal cancer cell lines) [µM] | CC50 [4] [µM] | IC50 [4] [µM] | IC (TGI) [4] [µM] | CC50 [5] [µM] | IC50 [5] [µM] | IC (TGI) [5] [µM] | LC50 (lethal concentration 50) [6] [µM] | IC50 [6] [µM] | IC (TGI) [6] [µM] | IC50 [7] [µM] | LC50 (lethal concentration 50) [7] [µM] | further results
1 | O=S(=O)(NCCNc1cc(-c2cn(-c3ccccc3)nc2-c2cccc(O)c2)ccn1)c1ccc(C(F)(F)F)cc1 [Compound 1o, N-(2-((4-(3-(3-Hydroxyphenyl)-1-phenyl-1H-pyrazol-4-yl)pyridin-2-yl)amino)ethyl)-4-(trifluoromethyl)benzenesulfonamide] | 2.37 | 2.67 | 2.34 | 3.12 | 2.11 | 3.03 | 2.38 | 3.45 | 2.45 | 44.1 | 2.65 | 7.2 | 35.1 | 2.04 | 5.4 | 93.4 | 2.47 | 10.9 | 2.85 | 81.2 | IC (TGI) [7]: 16.9 µM; IC50 [8]: 2.05 µM; CC50 [8]: > 100 µM; IC (TGI) [8]: 5.02 µM; CC50 [9]: > 100 µM; IC50 [9]: 2.48 µM; IC (TGI) [9]: 6.5 µM; IC50 [10]: 1.97 µM; IC (TGI) [10]: 6.2 µM; LD50 (lethal dose 50) [10]: 52 µM; IC50 [11]: 1.71 µM; LC50 (lethal concentration 50%) [11]: 41.4 µM; IC (TGI) [11]: 14.5 µM; IC50 [12]: 1.78 µM; LC50 (lethal concentration 50) [12]: 6.3 µM; IC (TGI) [12]: 3.3 µM
2 | COc1cccc(-c2nn(-c3ccccc3)cc2-c2ccnc(NCCNS(=O)(=O)c3ccc(C(F)(F)F)cc3)c2)c1 [Compound 1g, N-(2-((4-(3-(3-Methoxyphenyl)-1-phenyl-1H-pyrazol-4-yl)pyridin-2-yl)amino)ethyl)-4-(trifluoromethyl)benzenesulfonamide] | 4.94 | 5.28 | 3.35 | 6.1 | 4.05 | 6.36 | 4.91 | 13 | 5.32 | 63.4 | 3.54 | 13.9 | 37.7 | 2.32 | 5.7 | > 100 | 2.86 | 26.7 | 2.94 | > 100 | inhibition at 10 µM (NCI-60 cell line panel): 92.8%; IC (TGI) [7]: > 100 µM; IC50 [8]: 3.31 µM; CC50 [8]: > 100 µM; IC (TGI) [8]: > 100 µM; CC50 [9]: > 100 µM; IC50 [9]: 2.87 µM; IC (TGI) [9]: 19 µM; IC50 [10]: 2.12 µM; IC (TGI) [10]: 6.8 µM; LD50 (lethal dose 50) [10]: > 100 µM; IC50 [11]: 3.4 µM; LC50 (lethal concentration 50%) [11]: > 100 µM; IC (TGI) [11]: 6.5 µM; IC50 [12]: 1.72 µM; LC50 (lethal concentration 50) [12]: 5.6 µM; IC (TGI) [12]: 3.1 µM
3 | COc1cccc(-c2nn(-c3ccccc3)cc2-c2ccnc(NCCCNS(=O)(=O)c3cccc(F)c3)c2)c1 [Compound 2h, 3-Fluoro-N-(3-((4-(3-(3-methoxyphenyl)-1-phenyl-1H-pyrazol-4-yl)pyridin-2-yl)amino)propyl)benzenesulfonamide] | 4.14 | 4.49 | 3.18 | 3.88 | 3.49 | 5.01 | 4.69 | 4.65 | 4.25 | > 100 | 4.83 | > 100 | > 100 | 2.87 | 18.8 | > 100 | 2.97 | > 100 | 3.28 | > 100 | inhibition at 10 µM (NCI-60 cell line panel): 76.8%; IC (TGI) [7]: > 100 µM; IC50 [8]: 3.49 µM; CC50 [8]: > 100 µM; IC (TGI) [8]: 30.4 µM; CC50 [9]: > 100 µM; IC50 [9]: 3.31 µM; IC (TGI) [9]: > 100 µM; IC50 [10]: 2.42 µM; IC (TGI) [10]: > 100 µM; LD50 (lethal dose 50) [10]: > 100 µM; IC50 [11]: 3.52 µM; LC50 (lethal concentration 50%) [11]: > 100 µM; IC (TGI) [11]: > 100 µM; IC50 [12]: 1.86 µM; LC50 (lethal concentration 50) [12]: 7.6 µM; IC (TGI) [12]: 3.7 µM
